Assay results published in patent publication US20220213092A1, “BICYCLIC PYRAZOLE BRUTON'S TYROSINE KINASE INHIBITORS” (AbbVie Inc., priority 2020, published 2022).

Target: MAP2K1 (Homo sapiens, UniProt Q02750)
Assay: Other kinase MSA: MAP2K1
Type: biochemical
Details: 25 μM ATP, ERKtide substrate; pre-activation of ERK 30 min, detection after 60 minutes; read-out: IC50, Enzyme MAP2K1
Procedure: Kinase activity, unless otherwise indicated, was measured in vitro using an electrophoretic mobility shift assay (MSA). The phosphorylation of a peptide substrate by BTK and other kinases was measured. The kinase reactions were assembled in a total volume of 25 μL per well in 384 well plates. The following was added to each well: compound buffer (or control); enzyme buffer; and substrate buffer, as further described below. […]
Enzyme and compound/inhibitor were optionally pre-incubated. […] The kinase activity for the kinases in Table 3 were measured at 3 hours incubation time, except that in the case of MAP2K1 and MAP2K2 assay, pre-activation of ERK was done for 30 min with 6 μM of ATP, and then the detection of activated ERK in the presence of compounds was done after 60 minutes of incubation.
The terminated reactions were analyzed using a 12 channel LABCHIP® 3000 microfluidic detection instrument (available from Caliper Life Sciences, Waltham, Mass.). […] As substrate and product peptides were separated, two peaks of fluorescence were observed. Change in the relative fluorescence intensity of the substrate and product peaks was the parameter measured, reflecting enzyme activity. […] Capillary electrophoregrams (RDA acquisition files) were analyzed using HTS Well Analyzer software (available from Caliper Life Sciences, Waltham, Mass.). […]

Chain of MAP2K1 (Q02750 whole entry, species assumed): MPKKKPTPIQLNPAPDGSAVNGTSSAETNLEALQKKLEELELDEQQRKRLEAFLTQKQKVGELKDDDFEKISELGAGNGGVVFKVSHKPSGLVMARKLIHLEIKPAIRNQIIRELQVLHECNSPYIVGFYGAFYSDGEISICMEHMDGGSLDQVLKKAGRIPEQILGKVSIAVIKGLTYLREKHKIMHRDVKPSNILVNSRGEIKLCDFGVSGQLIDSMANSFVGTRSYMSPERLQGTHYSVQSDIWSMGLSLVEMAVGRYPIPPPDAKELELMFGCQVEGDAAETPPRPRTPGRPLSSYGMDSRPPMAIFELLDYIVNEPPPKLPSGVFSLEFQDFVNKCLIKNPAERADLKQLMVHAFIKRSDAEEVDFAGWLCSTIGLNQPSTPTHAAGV

Compound: C=CC(=O)N1CCC([C@@H]2CCNc3c(C(N)=O)c(-c4ccc(Oc5ccccc5)cc4)nn32)CC1 [Compound A, reference compound]
- IC50: 0.0413 µM
